From ChEMBL document CHEMBL3351675, “Novel benzenesulfonylureas containing thiophenylpyrazoline moiety as potential antidiabetic and anticancer agents” (Bioorg Med Chem Lett, 2014)
Activity calls are given as the source filed them. No cut-off for these calls is given here.

Assays:
[1] = Anticancer activity against human HCT15 cells assessed as cell growth level at 10 uM after 48 hrs by sulforhodamine B assay; type: functional, HCT-15
A549 = assay: Anticancer activity against human A549/ATCC cells assessed as cell growth level at 10 uM after 48 hrs by sulforhodamine B assay; type: functional
K562 = assay: Anticancer activity against human K562 cells assessed as cell growth level at 10 uM after 48 hrs by sulforhodamine B assay; type: functional
[2] = Anticancer activity against human OVCAR3 cells assessed as cell growth level at 10 uM after 48 hrs by sulforhodamine B assay; type: functional, OVCAR-3
HOP-62 = assay: Anticancer activity against human HOP62 cells assessed as cell growth level at 10 uM after 48 hrs by sulforhodamine B assay; type: functional
[3] = Anticancer activity against human OVCAR8 cells assessed as cell growth level at 10 uM after 48 hrs by sulforhodamine B assay; type: functional, OVCAR-8
SF-268 = assay: Anticancer activity against human SF268 cells assessed as cell growth level at 10 uM after 48 hrs by sulforhodamine B assay; type: functional
U-251 = assay: Anticancer activity against human U251 cells assessed as cell growth level at 10 uM after 48 hrs by sulforhodamine B assay; type: functional
NCI-H23 = assay: Anticancer activity against human NCI-H23 cells assessed as cell growth level at 10 uM after 48 hrs by sulforhodamine B assay; type: functional
SK-MEL-28 = assay: Anticancer activity against human SK-MEL-28 cells assessed as cell growth level at 10 uM after 48 hrs by sulforhodamine B assay; type: functional
A498 = assay: Anticancer activity against human A498 cells assessed as cell growth level at 10 uM after 48 hrs by sulforhodamine B assay; type: functional
[4] = Anticancer activity against human HCT116 cells assessed as cell growth level at 10 uM after 48 hrs by sulforhodamine B assay; type: functional, HCT-116
NCI-H322M = assay: Anticancer activity against human NCI-H322M cells assessed as cell growth level at 10 uM after 48 hrs by sulforhodamine B assay; type: functional
SK-MEL-5 = assay: Anticancer activity against human SK-MEL-5 cells assessed as cell growth level at 10 uM after 48 hrs by sulforhodamine B assay; type: functional
DU-145 = assay: Anticancer activity against human DU145 cells assessed as cell growth level at 10 uM after 48 hrs by sulforhodamine B assay; type: functional
Rattus norvegicus = assay: Effect on body weight in Wistar rat model of streptozotocin-induced diabetes at 30 mg/kg, po measured over 15 days; type: ADME, organism-based; set-up: dose 30 mg/kg, route oral; conditions: in vivo, 360 h
[5] = Anticancer activity against human NCI-ADR-RES cells assessed as cell growth level at 10 uM after 48 hrs by sulforhodamine B assay; type: functional
[6] = Anticancer activity against human SKOV3 cells assessed as cell growth level at 10 uM after 48 hrs by sulforhodamine B assay; type: functional, SK-OV-3
CCRF-CEM = assay: Anticancer activity against human CCRF-CEM cells assessed as cell growth level at 10 uM after 48 hrs by sulforhodamine B assay; type: functional
NCI-H226 = assay: Anticancer activity against human NCI-H226 cells assessed as cell growth level at 10 uM after 48 hrs by sulforhodamine B assay; type: functional
SW-620 = assay: Anticancer activity against human SW620 cells assessed as cell growth level at 10 uM after 48 hrs by sulforhodamine B assay; type: functional
SR = assay: Anticancer activity against human SR cells assessed as cell growth level at 10 uM after 48 hrs by sulforhodamine B assay; type: functional
[7] = Anticancer activity against human LOXIMVI cells assessed as cell growth level at 10 uM after 48 hrs by sulforhodamine B assay; type: functional, LOX IMVI
[8] = Anticancer activity against human SF539 cells assessed as cell growth level at 10 uM after 48 hrs by sulforhodamine B assay; type: functional, SF-539
HL-60(TB) = assay: Anticancer activity against human HL-60(TB) cells assessed as cell growth level at 10 uM after 48 hrs by sulforhodamine B assay; type: functional
Malme-3M = assay: Anticancer activity against human MALME-3M cells assessed as cell growth level at 10 uM after 48 hrs by sulforhodamine B assay; type: functional
[9] = Anticancer activity against human UACC62 cells assessed as cell growth level at 10 uM after 48 hrs by sulforhodamine B assay; type: functional, UACC-62
[10] = Anticancer activity against human OVCAR4 cells assessed as cell growth level at 10 uM after 48 hrs by sulforhodamine B assay; type: functional, OVCAR-4
CAKI-1 = assay: Anticancer activity against human CAKI-1 cells assessed as cell growth level at 10 uM after 48 hrs by sulforhodamine B assay; type: functional
NCI-H460 = assay: Anticancer activity against human NCI-H460 cells assessed as cell growth level at 10 uM after 48 hrs by sulforhodamine B assay; type: functional
786-0 = assay: Anticancer activity against human 786-0 cells assessed as cell growth level at 10 uM after 48 hrs by sulforhodamine B assay; type: functional
SNB-75 = assay: Anticancer activity against human SNB75 cells assessed as cell growth level at 10 uM after 48 hrs by sulforhodamine B assay; type: functional
SNB-19 = assay: Anticancer activity against human SNB19 cells assessed as cell growth level at 10 uM after 48 hrs by sulforhodamine B assay; type: functional
[11] = Anticancer activity against human SF295 cells assessed as cell growth level at 10 uM after 48 hrs by sulforhodamine B assay; type: functional, SF-295
[12] = Anticancer activity against human NCI60 cells assessed as cell growth level at 10 uM after 48 hrs by sulforhodamine B assay; type: functional
[13] = Anticancer activity against human BT549 cells assessed as cell growth level at 10 uM after 48 hrs by sulforhodamine B assay; type: functional, BT-549
[14] = Anticancer activity against human COLO205 cells assessed as cell growth level at 10 uM after 48 hrs by sulforhodamine B assay; type: functional, COLO 205
KM12 = assay: Anticancer activity against human KM12 cells assessed as cell growth level at 10 uM after 48 hrs by sulforhodamine B assay; type: functional
[15] = Anticancer activity against human HOP92 cells assessed as cell growth level at 10 uM after 48 hrs by sulforhodamine B assay; type: functional, HOP-92
MDA-MB-435 = assay: Anticancer activity against human MDA-MB-435 cells assessed as cell growth level at 10 uM after 48 hrs by sulforhodamine B assay; type: functional
[16] = Anticancer activity against human OVCAR5 cells assessed as cell growth level at 10 uM after 48 hrs by sulforhodamine B assay; type: functional, OVCAR-5
MDA-MB-231 = assay: Anticancer activity against human MDA-MB-231 cells assessed as cell growth level at 10 uM after 48 hrs by sulforhodamine B assay; type: functional
[17] = Anticancer activity against human Hs 578T cells assessed as cell growth level at 10 uM after 48 hrs by sulforhodamine B assay; type: functional
[18] = molecular target: Peroxisome proliferator-activated receptor gamma (Mus musculus) (UniProt P37238); assay: Transactivation of PPARgamma (mouse) expressed in 3T3-L1 cells incubated for 24 hrs by luciferase reporter gene assay relative to rosiglitazone
Chain of Peroxisome proliferator-activated receptor gamma (Mus musculus) (P37238 whole entry, looked up): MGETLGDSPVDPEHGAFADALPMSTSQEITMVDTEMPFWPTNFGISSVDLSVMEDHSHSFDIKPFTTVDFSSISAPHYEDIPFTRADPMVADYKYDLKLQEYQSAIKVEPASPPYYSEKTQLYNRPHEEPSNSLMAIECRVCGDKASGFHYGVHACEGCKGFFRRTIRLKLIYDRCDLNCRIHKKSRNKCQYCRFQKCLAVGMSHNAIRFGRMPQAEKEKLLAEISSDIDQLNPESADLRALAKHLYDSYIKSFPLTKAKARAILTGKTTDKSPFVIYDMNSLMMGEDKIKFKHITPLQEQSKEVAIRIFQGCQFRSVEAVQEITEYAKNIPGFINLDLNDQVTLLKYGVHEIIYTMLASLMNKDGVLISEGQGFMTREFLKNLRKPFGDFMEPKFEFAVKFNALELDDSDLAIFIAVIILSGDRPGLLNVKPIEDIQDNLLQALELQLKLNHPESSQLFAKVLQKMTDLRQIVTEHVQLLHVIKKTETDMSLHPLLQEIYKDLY

TK-10 = assay: Anticancer activity against human TK10 cells assessed as cell growth level at 10 uM after 48 hrs by sulforhodamine B assay; type: functional

Compound `Cc1ccc(NC(=O)NS(=O)(=O)c2ccc(N3N=C(c4cccs4)CC3c3ccc(C)s3)cc2)cc1` (stereo not given) has an Activity [1] of 99.31%, an Activity (A549) of 101.55% and an Activity (K562) of 113.81%. It also gave an Activity [2] of 98.17%, an Activity (HOP-62) of 76.92% and an Activity [3] of 99.82%. The Activity (SF-268) was 95.62%, the Activity (U-251) was 94.12% and the Activity (NCI-H23) was 98.53%. For the same compound, the Activity (SK-MEL-28) was 47.8%, the Activity (A498) was 109% and the Activity [4] was 85.12%. It also gave an Activity (NCI-H322M) of 103.57%, an Activity (SK-MEL-5) of 47.78% and an Activity (DU-145) of 102.33%. The Activity (Rattus norvegicus) was “Non-toxic”, the Activity [5] was 102.87% and the Activity [6] was 78.27%. For the same compound, the Activity (CCRF-CEM) was 87.89%, the Activity (NCI-H226) was 110.48% and the Activity (SW-620) was 106.34%. The Activity (SR) was 84.69%, the Activity [7] was 99.74% and the Activity [8] was 98.31%. The Activity (HL-60(TB)) was 126.37%, the Activity (Malme-3M) was 40.64% and the Activity [9] was 40.91%. For the same compound, the Activity [10] was 106.4%, the Activity (CAKI-1) was 95.78% and the Activity (NCI-H460) was 103.16%. For the same compound, the Activity (786-0) was 103.79%, the Activity (SNB-75) was 93.74% and the Activity (SNB-19) was 108.18%. The Activity [11] was 100.07%, the Activity [12] was 89.29% and the Activity [13] was 74.25%. It also gave an Activity [14] of -54.62%, an Activity (KM12) of 97.36% and an Activity [15] of 84.91%. The Activity (MDA-MB-435) was 61.95%, the Activity [16] was 114.78% and the Activity (MDA-MB-231) was 116.79%. The Activity [17] was 96.05%, the Activity [18] was “inactive” and the Activity (TK-10) was 96.78%.

`COc1ccc(NC(=O)NS(=O)(=O)c2ccc(N3N=C(c4cccs4)CC3c3ccc(C)s3)cc2)cc1` (stereo not given) gave an Activity [1] of 102.46%, an Activity (A549) of 5.45% and an Activity (K562) of 111.39%. The Activity [2] was 106.38%, the Activity (HOP-62) was 81.02% and the Activity [3] was 106.9%. The Activity (SF-268) was 97.85%, the Activity (U-251) was 98.07% and the Activity (NCI-H23) was 97.55%. It also gave an Activity (SK-MEL-28) of 48.3%, an Activity (A498) of 101.86% and an Activity [4] of 98.77%. It also gave an Activity (NCI-H322M) of 102.37%, an Activity (SK-MEL-5) of 48.27% and an Activity (DU-145) of 105.62%. The Activity (Rattus norvegicus) was “Non-toxic”, the Activity [5] was 103.44% and the Activity [6] was 82.55%. The Activity (CCRF-CEM) was 88.12%, the Activity (NCI-H226) was 110.15% and the Activity (SW-620) was 107.16%. It also gave an Activity (SR) of 75.83%, an Activity [7] of 96.81% and an Activity [8] of 104.31%. The Activity (HL-60(TB)) was 102.86%, the Activity (Malme-3M) was 31.15% and the Activity [9] was 31%. It also gave an Activity [10] of 102.84%, an Activity (CAKI-1) of 94.74% and an Activity (NCI-H460) of 108.95%. It also gave an Activity (786-0) of 100.87%, an Activity (SNB-75) of 99.87% and an Activity (SNB-19) of 103.16%. The Activity [11] was 104.7%, the Activity [12] was 87.76% and the Activity [13] was 116.23%. It also gave an Activity [14] of -63.47%, an Activity (KM12) of 98.51% and an Activity [15] of 87.06%. The Activity (MDA-MB-435) was 52.3%, the Activity [16] was 113.48% and the Activity (MDA-MB-231) was 113.39%. The Activity [17] was 97.52%, the Activity [18] was “inactive” and the Activity (TK-10) was 96.03%.
